# Assay results from the Kinase Knowledgebase extract (Sharma et al. 2016).
# Molecular target: MAPK14 (human) (UniProt Q16539)
# Assay: Assessment of MAPK14 Kinase Activity
# Chain of MAPK14 (human) (Q16539 whole entry, looked up): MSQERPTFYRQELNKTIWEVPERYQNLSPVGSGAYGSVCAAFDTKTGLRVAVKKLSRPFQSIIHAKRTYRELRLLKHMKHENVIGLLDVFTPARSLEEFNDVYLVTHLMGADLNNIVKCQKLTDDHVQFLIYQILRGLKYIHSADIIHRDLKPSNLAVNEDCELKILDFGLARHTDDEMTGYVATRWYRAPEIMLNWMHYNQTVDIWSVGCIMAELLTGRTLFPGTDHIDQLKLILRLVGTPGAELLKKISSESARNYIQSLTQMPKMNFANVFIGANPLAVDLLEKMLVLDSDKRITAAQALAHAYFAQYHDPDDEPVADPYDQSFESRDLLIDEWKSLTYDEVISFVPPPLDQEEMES
row,Structure (SMILES),IC50 [nM]
1,CCc1ccc(-c2cc(NC(=O)Nc3cc(C(C)(C)C)sc3C(=O)N3CCN(C)C(=O)C3(C)C)cc(F)c2C)cn1,< 100
2,Cc1ccc(NC(=O)Nc2sc(C(C)(C)C)cc2C(=O)N2CCN(C)C(=O)C2(C)C)cc1-c1cnc(NCC(O)CO)nc1 (stereo not given),< 100
3,CCOc1ccc(-c2cc(NC(=O)Nc3sc(C(C)(C)C)cc3C(=O)N3CCN(C)C(=O)C3(C)C)ccc2C)cn1,< 100
4,Cc1ccc(NC(=O)Nc2sc(C(C)(C)C)cc2C(=O)N2CCN(CCN(C)C)C(=O)C2(C)C)cc1-c1cccnc1,< 100
5,CCc1ccc(-c2cc(NC(=O)Nc3cn(C(C)(C)C)nc3C(=O)N3CCNC(=O)C3(C)C)ccc2C)cn1,< 100
6,Cc1ccc(NC(=O)Nc2cn(C(C)(C)C)nc2C(=O)N2CCN(C)C(=O)C2(C)C)cc1-c1ccc(N2CCOCC2)cn1,< 100
7,COc1ccc(NC(=O)Nc2sc(C(C)(C)C)cc2C(=O)N2CCNC(=O)C2(C)C)c(C)c1-c1ccncc1,< 100
8,Cc1ncc(NC(=O)Nc2sc(C(C)(C)C)cc2C(=O)N2CCN(C)C(=O)C2(C)C)cc1C#CC1CC1,< 100
9,Cc1ccc(NC(=O)Nc2sc(C(C)(C)C)cc2C(=O)N2CCNC(=O)C2(C)C)cc1C#Cc1ccccn1,< 100
10,Cc1ccc(NC(=O)Nc2sc(C(C)(C)C)cc2C(=O)N2CCNC(=O)C2(C)C)cc1-c1cc[n+]([O-])cc1,< 100
11,Cc1ccc(NC(=O)Nc2cn(C(C)(C)C)nc2C(=O)N2CCN(C3CCN(C)C3)C(=O)C2(C)C)cc1-c1cccnc1 (stereo not given),100 to 1000
12,CCNC(=O)c1ccc(-c2cc(NC(=O)Nc3cc(C(C)(C)C)sc3C(=O)N3CCN(C)C(=O)C3(C)C)ccc2C)cn1,< 100
13,CCc1ccc(-c2cc(NC(=O)Nc3cc(C(C)(C)C)sc3C(=O)N3CCN(C)C(=O)C3(C)C)ccc2C)cn1,< 100
14,CCNC(=O)c1ccc(-c2cc(NC(=O)Nc3cc(C(C)(C)C)sc3C(=O)N3CCNC(=O)C3(C)C)ccc2C)cn1,< 100
15,CC(C)(C)c1cc(C(=O)N2CCNC(=O)C2(C)C)c(NC(=O)Nc2cccc(-c3ccncc3)c2)s1,< 100
16,Cc1nnc(-c2ccc(-c3cc(NC(=O)Nc4sc(C(C)(C)C)cc4C(=O)N4CCN(C)C(=O)C4(C)C)ccc3C)cn2)o1,< 100
17,CCNC(=O)c1ccc(-c2cc(NC(=O)Nc3cn(C(C)(C)C)nc3C(=O)N3CCN(C)C(=O)C3(C)C)ccc2C)cn1,< 100
18,Cc1ccc(NC(=O)Nc2sc(C(C)(C)C)cc2C(=O)N2CCN(C)C(=O)C2(C)C)cc1-c1ccc(C(N)=O)nc1,< 100
19,Cc1ccc(NC(=O)Nc2sc(C(C)(C)C)cc2C(=O)N2CCNC(=O)C2(C)C)cc1-c1ccc(OCCN(C)C)nc1,< 100
20,COc1ccc(NC(=O)Nc2sc(C(C)(C)C)cc2C(=O)N2CCNC(=O)C2(C)C)cc1-c1ccncc1,< 100
21,COC(=O)CN1CCN(C(=O)c2cc(C(C)(C)C)sc2NC(=O)Nc2ccc(C)c(-c3ccncc3)c2)C(C)(C)C1=O,< 100
22,Cc1ccc(NC(=O)Nc2cc(C(C)(C)C)sc2C(=O)N2CCN(C)C(=O)C2(C)C)cc1-c1ccc(CN2CCOCC2)nc1,< 100
23,Cc1ccc(NC(=O)Nc2sc(C(C)(C)C)nc2C(=O)N2CCN(C)C(=O)C2(C)C)cc1-c1ccc(CN2CCOCC2)nc1,< 100
24,COc1ccc(-c2cc(NC(=O)Nc3sc(C(C)(C)C)cc3C(=O)N3CCNC(=O)C3(C)C)cc(F)c2C)cn1,< 100
25,Cc1ccc(NC(=O)Nc2cn(C(C)(C)C)nc2C(=O)N2CCNC(=O)C2(C)C)cc1-c1cccnc1,< 100
26,Cc1ccc(NC(=O)Nc2sc(C(C)(C)C)cc2C(=O)N2CCNC(=O)CC2)cc1-c1cccnc1,< 100

row,Structure (SMILES),IC50 [nM]
1,Cc1ccc(NC(=O)Nc2sc(C(C)(C)C)cc2C(=O)N2CCNC(=O)C2(C)C)cc1C#N,< 100
2,Cc1ccc(NC(=O)Nc2cn(C(C)(C)C)nc2C(=O)N2CCN(C)C(=O)C2(C)C)cc1-c1ccc(CN2CCOCC2)cn1,< 100
3,Cc1ccc(NC(=O)Nc2cc(C(C)(C)C)sc2C(=O)N2CCN(C)C(=O)C2(C)C)cc1-c1ccc(N2CCOCC2)nc1,< 100
4,CC(C)(C)c1cc(C(=O)N2CCNC(=O)C2(C)C)c(NC(=O)Nc2cccc(-c3ccc(OCCCc4ccccn4)nc3)c2)s1,< 100
5,Cc1ccc(NC(=O)Nc2sc(C(C)(C)C)cc2C(=O)N2CCN(C)C(=O)C2(C)C)cc1-c1ccc(-n2ccnc2)nc1,< 100
6,COc1ccc(-c2cc(NC(=O)Nc3cc(C(C)(C)C)sc3C(=O)N3CCNC(=O)C3(C)C)ccc2C)cn1,< 100
7,COc1ccc(-c2cc(NC(=O)Nc3sc(C(C)(C)C)cc3C(=O)N3CCNC(=O)C3(C)C)c(F)cc2C)cn1,< 100
8,CN1CCN(CCCOc2ccc(-c3cccc(NC(=O)Nc4sc(C(C)(C)C)cc4C(=O)N4CCNC(=O)C4(C)C)c3)cn2)CC1,< 100
9,COc1ccc(-c2cc(NC(=O)Nc3sc(C(C)(C)C)cc3C(=O)N3CCC(=O)N(C)CC3)ccc2C)cn1,< 100
10,Cc1ccc(NC(=O)Nc2sc(C(C)(C)C)cc2C(=O)N2CCNC(=O)C2(C)C)cc1C#C[Si](C)(C)C,< 100
11,Cc1ccc(NC(=O)Nc2sc(C(C)(C)C)cc2C(=O)N2CCNS(=O)(=O)CC2)cc1-c1ccc(CN2CCOCC2)nc1,< 100
12,CN(C)CCCOc1ccc(-c2cccc(NC(=O)Nc3sc(C(C)(C)C)cc3C(=O)N3CCNC(=O)C3(C)C)c2)cn1,< 100
13,CCNC(=O)c1ccc(-c2cc(NC(=O)Nc3sc(C(C)(C)C)cc3C(=O)N3CCN(C)C(=O)C3(C)C)ccc2C)cn1,< 100
14,COc1ccc(-c2cc(NC(=O)Nc3sc(C(C)(C)C)cc3C(=O)N3CCN(C)C(=O)C3(C)C)c(F)cc2C)cn1,< 100
15,Cc1ccc(NC(=O)Nc2sc(C(C)(C)C)cc2C(=O)N2CCNC(=O)C2(C)C)cc1-c1c(C)noc1C,< 100
16,Cc1ccc(NC(=O)Nc2cc(C(C)(C)C)sc2C(=O)N2CCN(C(C)C)C(=O)C2(C)C)cc1-c1ccc(CN2CCOCC2)nc1,< 100
17,Cc1ccc(NC(=O)Nc2sc(C(C)(C)C)cc2C(=O)N2CCNC(=O)CC2)cc1-c1cnc(N2CCOCC2)nc1,< 100
18,Cc1ccc(NC(=O)Nc2sc(C(C)(C)C)cc2C(=O)N2CCNC(=O)C2(C)C)cc1-c1ccc(C(=O)N(C)C)nc1,< 100
19,Cc1ccc(NC(=O)Nc2sc(C(C)(C)C)cc2C(=O)N2CCN(C)C(=O)C2(C)C)cc1-c1ccc(CN2CCCC2)nc1,< 100
20,Cc1ccc(NC(=O)Nc2cn(C(C)(C)C)nc2C(=O)N2CCN(C)C(=O)C2(C)C)cc1-c1ccc(C(C)C)nc1,< 100
21,Cc1ccc(NC(=O)Nc2sc(C(C)(C)C)cc2C(=O)N2CCN(C)C(=O)C2(C)C)cc1-c1ccc(OC(C)C)nc1,< 100
22,Cc1ccc(NC(=O)Nc2sc(C(C)(C)C)cc2C(=O)N2CCNC(=O)C2(C)C)cc1-c1ccc(NCC(O)CO)nc1 (stereo not given),< 100
23,CCc1ccc(-c2cc(NC(=O)Nc3cn(C4(C)CCCC4)nc3C(=O)N3CCNC(=O)C3(C)C)ccc2C)cn1,< 100
24,COCCOc1ccc(-c2cc(NC(=O)Nc3sc(C(C)(C)C)cc3C(=O)N3CCN(C)C(=O)C3(C)C)ccc2C)cn1,< 100
25,CCc1ccc(-c2cc(NC(=O)Nc3cn(C(C)(C)C)nc3C(=O)N3CCN(C)C(=O)C3(C)C)ccc2C)cn1,< 100

# Other lines, results leading:
row,IC50 [nM],Structure (SMILES)
1,< 100,Cc1ccc(NC(=O)Nc2sc(C(C)(C)C)cc2C(=O)N2CCNC(=O)C2(C)C)cc1-c1ccc(N2CCCCC2)nc1
2,< 100,Cc1ncc(NC(=O)Nc2sc(C(C)(C)C)cc2C(=O)N2CCNC(=O)C2(C)C)cc1-c1ccc(N2CCOCC2)nc1
3,< 100,Cc1ccc(NC(=O)Nc2sc(C(C)(C)C)cc2C(=O)N2CCNC(=O)C2(C)C)cc1-c1cnc(N2CCOCC2)nc1
4,< 100,Cc1ccc(NC(=O)Nc2sc(C(C)(C)C)cc2C(=O)N2CCN(C)C(=O)C2(C)C)cc1-c1ccc(CN2CCOCC2)cn1
5,< 100,Cc1ccc(NC(=O)Nc2sc(C(C)(C)C)cc2C(=O)N2CCNC(=O)C2(C)C)cc1-c1ccc(OCCN2CCCCC2)nc1
6,< 100,CCc1ccc(-c2cc(NC(=O)Nc3sc(C(C)(C)C)cc3C(=O)N3CCNC(=O)C3(C)C)ccc2C)nc1
7,< 100,Cc1ccc(-c2cc(NC(=O)Nc3sc(C(C)(C)C)cc3C(=O)N3CCNC(=O)C3(C)C)ccc2C)nn1
8,< 100,Cc1ccc(NC(=O)Nc2sc(C(C)(C)C)cc2C(=O)N2CCNC(=O)C2(C)C)cc1-c1ccncc1
9,< 100,CC(C)(C)c1cc(C(=O)N2CCNC(=O)C2(C)C)c(NC(=O)Nc2ccc(F)c(-c3ccc(OCCN4CCOCC4)nc3)c2)s1
10,< 100,Cc1ccc(NC(=O)Nc2sc(C(C)(C)C)cc2C(=O)N2CCNC(=O)C2(C)C)cc1-c1ccc(CN)nc1
11,< 100,Cc1ccc(NC(=O)Nc2sc(C(C)(C)C)cc2C(=O)N2CCNC(=O)C2(C)C)cc1-c1ccc(N2CCC(N)C2)nc1 (stereo not given)
12,< 100,Cc1ccc(NC(=O)Nc2sc(C(C)(C)C)cc2C(=O)N2CCNC(=O)C2(C)C)cc1C#CCN1CCOCC1
13,< 100,Cc1ccc(NC(=O)Nc2sc(C(C)(C)C)cc2C(=O)N2CCNC(=O)C2(C)C)cc1-c1ccc(N(C)C)nc1
14,< 100,CNC(=O)c1ccc(-c2cc(NC(=O)Nc3sc(C(C)(C)C)cc3C(=O)N3CCNC(=O)C3(C)C)ccc2C)cn1
15,< 100,Cc1ccc(NC(=O)Nc2sc(C(C)(C)C)cc2C(=O)N2CCNC(=O)C2(C)C)cc1-c1ccc(CN2CCOCC2)nc1
16,< 100,Cc1ccc(NC(=O)Nc2sc(C(C)(C)C)cc2C(=O)N2CCN(C)C(=O)C2(C)C)cc1-c1ccc(N2CCOCC2)nc1
17,< 100,COc1ccc(-c2cc(NC(=O)Nc3sc(C(C)(C)C)cc3C(=O)N3CCNC(=O)C3(C)C)ccc2C)nc1
18,< 100,Cc1ccc(NC(=O)Nc2sc(C(C)(C)C)cc2C(=O)N2CCNC(=O)C2(C)C)cc1-c1ccc(CN2CCOCC2)cn1
19,< 100,Cc1ccc(NC(=O)Nc2sc(C(C)(C)C)cc2C(=O)N2CCNC(=O)C2(C)C)cc1-c1ccc(N2CCN(C)CC2)cn1
20,< 100,Cc1c(NC(=O)Nc2sc(C(C)(C)C)cc2C(=O)N2CCNC(=O)C2(C)C)cccc1-c1ccc(N2CCOCC2)nc1
21,< 100,Cc1ccc(NC(=O)Nc2sc(C(C)(C)C)cc2C(=O)N2CCNC(=O)C2(C)C)cc1-c1ccc(N2CCOCC2)cn1
22,< 100,Cc1ccc(NC(=O)Nc2sc(C(C)(C)C)cc2C(=O)N2CCNC(=O)C2(C)C)cc1-c1ccc(N2CCOCC2)nc1
23,< 100,Cc1ccc(NC(=O)Nc2sc(C(C)(C)C)cc2C(=O)N2CCNC(=O)C2(C)C)cc1-c1ccc(OCCCN2CCOCC2)nc1
24,< 100,Cc1ccc(NC(=O)Nc2sc(C(C)(C)C)cc2C(=O)N2CCNC(=O)C2(C)C)cc1-c1ccc(N2CCC(N(C)C)C2)nc1 (stereo not given)
